These compounds were tested on Plasmodium falciparum (assay: MMV: Compounds (1uM) were screened in a 72hr growth assay monitored by flow cytometry both in the presence and absence of supplemental isopentenyl pyrophosphate (IPP) 200uM. Compounds which fail to show anti-malarial activity when chemically rescued by IPP are therefore specific to the apicoplast. The values are expressed as the ratio of the corresponding activity with and without IPP, respectively.).
Assay type: functional, W2

Point of comparison: `CCOc1ccccc1CNC(=O)C1c2ccccc2C(=O)N(CC(C)C)C1c1cccs1` (configuration not stated), Ratio 1.143. Against it:
- COc1ccc(C2Sc3ccccc3N=C3C2=C(O)c2ccccc23)cc1 (configuration not stated) — higher, 1.228
- COc1cc(OC)c(N(C)C(=O)c2cc3c(s2)-c2ccccc2S(=O)(=O)C3)cc1Cl — lower, 1
- CCOc1ccc(CCNC(=O)c2cccs2)cc1OCC — lower, 1.073
- O=c1cc(NC2CCN(CCCc3ccccc3)CC2)c2cc(Cl)ccc2o1 — lower, 1.019
- Oc1c2c(nc3cc(-c4ccccc4)nn13)CCCC2 — lower, 0.8046
- COC(=O)c1ccc(C2C3=C(O)CC(c4ccc(F)cc4)CC3=Nc3ccccc3N2C(=O)c2ccccc2)cc1 (configuration not stated) — lower, 0.9016
- O=C(Nc1cccc(-c2nc3ccccc3[nH]2)c1)c1cccc(NC(=O)c2ccco2)c1 — lower, 0.6407
- Cc1cccc(Nc2nc(N)c3ccccc3n2)c1.Cl — lower, 0.9275
- O=C(Nc1ccccc1O)c1ccc(-c2ccc(Cl)cc2Cl)o1 — lower, 0.8413
- COc1ccc(-c2cn3c(C(=O)Nc4ccccc4Cl)c(-c4ccccc4)c4c3n2CCCC4)cc1 — lower, 1.057
- c1ccc2cc3c(Nc4ccc(N5CCOCC5)cc4)ccnc3cc2c1 — lower, 0.7931
- Br.CCN(CC)S(=O)(=O)c1ccc(-c2csc(Nc3ccc(C)c(C)c3)n2)cc1 — lower, 0.8
- COc1ccc(-c2nc3cc(Cc4ccc5[nH]c(-c6ccc(OC)cc6)nc5c4)ccc3[nH]2)cc1 — higher, 1.389
- Cc1ccc(CN2CCC(C(=O)Nc3ccc(-c4cc5ccccc5[nH]4)cc3)CC2)o1 — lower, 0.8636
- Cc1ccnc(NC(c2cccc(OCc3ccccc3)c2)c2ccc3cccnc3c2O)c1 (configuration not stated) — higher, 1.558
- CCC(C)NCC(O)(c1ccc(Cl)cc1)c1ccc(Cl)cc1 (configuration not stated) — lower, 1.02
- FC(F)(F)c1cccc(Nc2nc3ccccc3nc2Nc2cccc(C(F)(F)F)c2)c1 — lower, 1.08
- COc1ccc(C2NCCc3c2[nH]c2ccccc32)cc1CN1CCN(c2ccc(F)cc2)CC1.Cl (configuration not stated) — lower, 0.8727
- CCOc1cc2c(cc1OCC)C(c1cc(Cl)ccc1O)NCC2 (configuration not stated) — lower, 1.123
- O=C(CSc1ccc2nnc(-c3cccc(F)c3)n2n1)Nc1ccc2c(c1)OCO2 — lower, 0.7344
- CCOc1ccc2c(c1)CN(Cc1ccc(Cl)cc1)CO2 — lower, 0.8361
- CCn1c(SCC(=O)Nc2cc(C(F)(F)F)ccc2Cl)nc2ccccc2c1=O — lower, 1
- c1ccc(/C2=N/c3ccccc3/N=C(/c3ccccc3)c3ccccc32)cc1 — lower, 0.807
- O=C(Nc1nc(-c2ccccn2)cs1)c1ccccc1Br — lower, 0.987
- COc1ccc(C(O)(CCC(C)C)C(CN2CCOCC2)c2ccc(Cl)cc2)cc1.Cl (configuration not stated) — lower, 1.06
- COc1ccc2nc(C)cc(Nc3ccccc3O)c2c1 — lower, 0.7711
- CCOc1cc(Br)c(C(C)NC(=O)c2cccc(OC)c2)cc1OCC (configuration not stated) — lower, 0.791
- CCCn1c(=N)c(C(=O)NC2CCCCC2)cc2c(=O)n3cccc(C)c3nc21 — lower, 0.8
- O=C(Nc1ccc(CN2CCOCC2)cc1)c1ccc(-c2cc(Cl)ccc2Cl)o1 — lower, 0.9054
- Nc1ccn([C@@H]2O[C@H](CO)[C@@H](O)[C@H]2O)c(=O)n1 [CYTIDINE] — lower, 0.6667
- O=C(Nc1ccc(Cl)cc1)N1CCN(c2ccc3nncn3n2)CC1 — lower, 0.8112
- COc1ccc(-c2cc3c(nn2)-c2ccccc2C3=O)cc1 — lower, 1.105
- CC1(c2ccccc2)Nc2ccccc2-c2nc3ccccc3n21 (configuration not stated) — lower, 1.062
- CCOc1cccc2sc(N(Cc3cccnc3)C(=O)C3CCCCC3)nc12 — lower, 0.8788
- Br.Cc1ccc(C)c(-c2csc(Nc3ccc(C)c(C)c3)n2)c1 — lower, 1.048
- CCOc1ccc(C2N(C)c3ccccc3N2C)cc1 — lower, 0.8372
- CC(C)(C)c1ccc(C(=O)Nc2nc3ccccc3s2)cc1 — lower, 0.8302
- OC(CNC1CCCCC1)Cn1c2ccccc2c2ccccc21 (configuration not stated) — lower, 1.115
- COc1ccc(C(=O)Nc2ccc(Cl)cc2C(=O)Nc2ccncc2)cc1 — lower, 0.8104
- COc1ccc(CN2CCN(Cc3ccccc3)CC2)c(O)c1 — higher, 1.283
- CN(C)c1ccc(N=Cc2ccc(N3CCOCC3)cc2)cc1 — lower, 0.9558
